What follows are compounds tested against human recombinant H-PGDS (Homo sapiens, UniProt O60760) (assay: Fluorescence intensity h-PGDS TBA enzyme assay). Conditions: Examples up to 622 (and 3a, 3b).
Format: biochemical

Sequence of human recombinant H-PGDS (O60760 whole entry): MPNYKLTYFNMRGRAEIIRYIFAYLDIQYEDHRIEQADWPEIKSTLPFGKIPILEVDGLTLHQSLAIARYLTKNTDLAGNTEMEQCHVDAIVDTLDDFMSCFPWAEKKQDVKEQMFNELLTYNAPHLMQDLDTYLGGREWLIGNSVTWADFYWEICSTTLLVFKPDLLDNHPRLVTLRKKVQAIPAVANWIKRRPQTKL

SMILES | IC50
CCOC(=O)N1CCC(NC(=O)c2ccc(-c3cccc(F)c3)nc2)CC1 [Example 32, Ethyl 4-({[6-(3-fluorophenyl)pyridin-3-yl]carbonyl}amino)piperidine-1-carboxylate] | 0.387 nM
COc1cnc(-c2ccccn2)nc1N1CCC(NC(=O)c2ccc(-c3cccc(F)c3)nc2)CC1 [Example 35, 6-(3-Fluorophenyl)-N-(1-(5-methoxy-2-(pyridin-2-yl)pyrimidin-4-yl)piperidin-4-yl)nicotinamide] | 2.95 nM
O=C(NC1CCN(c2ncnc3ccc(Cl)cc23)CC1)c1ccc(-c2cccc(F)c2)nc1 [Example 38, N-(1-(6-Chloroquinazolin-4-yl)piperidin-4-yl)-6-(3-fluorophenyl)nicotinamide] | 1.04 nM
O=C(NC1CCN(c2nnnn2-c2ccccc2)CC1)c1ccc(-c2cccc(F)c2)nc1 [Example 39, 6-(3-Fluorophenyl)-N-(1-(1-phenyl-1H-tetrazol-5-yl)piperidin-4-yl)nicotinamide] | 0.924 nM
Cc1ccc(C#N)c(N2CCC(NC(=O)c3ccc(-c4cccc(F)c4)nc3)CC2)n1 [Example 41, N-[1-(3-Cyano-6-methylpyridin-2-yl)piperidin-4-yl]-6-(3-fluorophenyl)nicotinamide] | 0.893 nM
O=C(NC1CCN(c2nc3ccccc3nc2NCCO)CC1)c1ccc(-c2cccc(F)c2)nc1 [Example 43, 6-(3-Fluorophenyl)-N-(1-{3-[(2-hydroxyethyl)amino]quinoxalin-2-yl}piperidin-4-yl)nicotinamide] | 2.18 nM
Cc1cc(C2CCCN2c2ccnc(N3CCC(NC(=O)c4ccc(-c5cccc(F)c5)nc4)CC3)n2)no1 (stereo not drawn) [Example 47, 6-(3-Fluorophenyl)-N-(1-{4-[2-(5-methylisoxazol-3-yl)pyrrolidin-1-yl]pyrimidin-2-yl}piperidin-4-yl)nicotinamide] | 2.92 nM
COc1cc(N2CCC(NC(=O)c3ccc(-c4cccc(F)c4)nc3)CC2)ncn1 [Example 49, 6-(3-Fluorophenyl)-N-[1-(6-methoxypyrimidin-4-yl)piperidin-4-yl]nicotinamide] | 0.619 nM
COc1ccc(-c2cc(N3CCC(NC(=O)c4ccc(-c5cccc(F)c5)nc4)CC3)ncn2)cc1OC [Example 55, N-{1-[6-(3,4-Dimethoxyphenyl)pyrimidin-4-yl]piperidin-4-yl}-6-(3-fluorophenyl)nicotinamide] | 1.67 nM
O=C(NC1CCN(c2nccc(NCc3ccccn3)n2)CC1)c1ccc(-c2cccc(F)c2)nc1 [Example 59, 6-(3-Fluorophenyl)-N-(1-{4-[(pyridin-2-ylmethyl)amino]pyrimidin-2-yl}piperidin-4-yl)nicotinamide] | 0.822 nM
O=C(NC1CCN(c2nncc3ccccc23)CC1)c1ccc(-c2cccc(F)c2)nc1 [Example 61, 6-(3-Fluorophenyl)-N-(1-phthalazin-1-ylpiperidin-4-yl)nicotinamide] | 0.365 nM
NC(=O)c1cccnc1N1CCC(NC(=O)c2ccc(-c3cccc(F)c3)nc2)CC1 [Example 64, N-{1-[3-(Aminocarbonyl)pyridin-2-yl]piperidin-4-yl}-6-(3-fluorophenyl)nicotinamide] | 0.246 nM
O=C(NC1CCN(c2ncccc2Cl)CC1)c1ccc(-c2cccc(F)c2)nc1 [Example 65, N-[1-(3-Ahloropyridin-2-yl)piperidin-4-yl]-6-(3-fluorophenyl)nicotinamide] | 0.354 nM
Cc1cc(C)c(C#N)c(N2CCC(NC(=O)c3ccc(-c4cccc(F)c4)nc3)CC2)n1 [Example 69, N-[1-(3-Cyano-46-dimethylpyridin-2-yl)piperidin-4-yl]-6-(3-fluorophenyl)nicotinamide] | 1.21 nM
N#Cc1ccc(C(F)(F)F)nc1N1CCC(NC(=O)c2ccc(-c3cccc(F)c3)nc2)CC1 [Example 70, N-{1-[3-Cyano-6-(trifluoromethyl)pyridin-2-yl]piperidin-4-yl}-6-(3-fluorophenyl)nicotinamide] | 3.26 nM
Cc1csc2c(N3CCC(NC(=O)c4ccc(-c5cccc(F)c5)nc4)CC3)ncnc12 [Example 71, 6-(3-Fluorophenyl)-N-[1-(7-methylthieno[3,2-d]pyrimidin-4-yl)piperidin-4-yl]nicotinamide] | 2.18 nM

Next, values leading:

IC50 | SMILES
2.41 nM | CCOC(=O)N1CCC(NC(=O)c2ccc(-c3cc(F)cc(F)c3)nc2)CC1 [Example 33, Ethyl 4-({[6-(3,5-difluorophenyl)pyridin-3-yl]carbonyl}amino)piperidine-1-carboxylate]
1.85 nM | O=C(NC1CCN(CC(F)(F)F)CC1)c1ccc(-c2cc(F)cc(F)c2)nc1 [Example 34, 6-(3,5-Difluorophenyl)-N-[1-(2,2,2-trifluoroethyl)piperidin-4-yl]nicotinamide]
7.11 nM | O=C(NC1CCNCC1)c1ccc(-c2cccc(F)c2)nc1 [Example 36, 6-(3-Fluorophenyl)-N-(piperidin-4-yl)nicotinamide]
0.478 nM | O=C(NC1CCN(c2cc(Nc3cc[nH]n3)ncn2)CC1)c1ccc(-c2cccc(F)c2)nc1 [Example 37, N-(1-(6-(1H-Pyrazol-3-ylamino)pyrimidin-4-yl)piperidin-4-yl)-6-(3-fluorophenyl)nicotinamide]
8.58 nM | O=C(NC1CCN(c2nccnc2-c2ccccc2)CC1)c1ccc(-c2cccc(F)c2)nc1 [Example 42, 6-(3-Fluorophenyl)-N-[1-(3-phenylpyrazin-2-yl)piperidin-4-yl]nicotinamide]
1.36 nM | COc1ccc(-c2cnc(C)nc2N2CCC(NC(=O)c3ccc(-c4cccc(F)c4)nc3)CC2)cc1OC [Example 44, N-{1-[5-(3,4-Dimethoxyphenyl)-2-methylpyrimidin-4-yl]piperidin-4-yl}-6-(3-fluorophenyl)nicotinamide]
0.773 nM | Cc1cc(N2CCC(NC(=O)c3ccc(-c4cccc(F)c4)nc3)CC2)nc(N)n1 [Example 45, N-[1-(2-Amino-6-methylpyrimidin-4-yl)piperidin-4-yl]-6-(3-fluorophenyl)nicotinamide]
1.73 nM | Cc1nc(C(F)(F)F)nc(N2CCC(NC(=O)c3ccc(-c4cccc(F)c4)nc3)CC2)c1C [Example 46, N-{1-[5,6-Dimethyl-2-(trifluoromethyl)pyrimidin-4-yl]piperidin-4-yl}-6-(3-fluorophenyl)nicotinamide]
2.9 nM | Cc1nc(-c2ccccn2)nc(N2CCC(NC(=O)c3ccc(-c4cccc(F)c4)nc3)CC2)c1Cl [Example 48, N-[1-(5-Chloro-6-methyl-2-pyridin-2-ylpyrimidin-4-yl)piperidin-4-yl]-6-(3-fluorophenyl)nicotinamide]
0.681 nM | O=C(NC1CCN(c2ccc(C(=O)N3CCOCC3)cn2)CC1)c1ccc(-c2cccc(F)c2)nc1 [Example 50, 6-(3-Fluorophenyl)-N-{1-[5-(morpholin-4-ylcarbonyl)pyridin-2-yl]piperidin-4-yl}nicotinamide]
0.266 nM | Cn1nnnc1N1CCC(NC(=O)c2ccc(-c3cccc(F)c3)nc2)CC1 [Example 51, 6-(3-Fluoro-phenyl)-N-[1-(1-methyl-1H-tetrazol-5-yl)-piperidin-4-yl]-nicotinamide]
0.332 nM | COc1ccc2c(N3CCC(NC(=O)c4ccc(-c5cccc(F)c5)nc4)CC3)ncnc2c1 [Example 52, 6-(3-Fluorophenyl)-N-[1-(7-methoxyquinazolin-4-yl)piperidin-4-yl]nicotinamide]
1.03 nM | O=C(NC1CCN(c2cc(OCc3ccccn3)ncn2)CC1)c1ccc(-c2cccc(F)c2)nc1 [Example 53, 6-(3-Fluorophenyl)-N-{1-[6-(pyridin-2-ylmethoxy)pyrimidin-4-yl]piperidin-4-yl}nicotinamide]
1.31 nM | Cn1ccnc1COc1cc(N2CCC(NC(=O)c3ccc(-c4cccc(F)c4)nc3)CC2)ncn1 [Example 54, 6-(3-Fluorophenyl)-N-(1-{6-[(1-methyl-1H-imidazol-2-yl)methoxy]pyrimidin-4-yl}piperidin-4-yl)nicotinamide]
12.8 nM | Cn1nccc1-c1nc(N2CCC(NC(=O)c3ccc(-c4cccc(F)c4)nc3)CC2)nc2ccccc12 [Example 56, 6-(3-Fluorophenyl)-N-{1-[4-(1-methyl-1H-pyrazol-5-yl)quinazolin-2-yl]piperidin-4-yl}nicotinamide]
0.285 nM | CCn1cnc2c(N3CCC(NC(=O)c4ccc(-c5cccc(F)c5)nc4)CC3)ncnc21 [Example 57, N-[1-(9-Ethyl-9H-purin-6-yl)piperidin-4-yl]-6-(3-fluorophenyl)nicotinamide]
8.25 nM | O=C(NC1CCN(c2ccnc(N3CCc4ccccc4C3)n2)CC1)c1ccc(-c2cccc(F)c2)nc1 [Example 58, N-{1-[2-(3,4-Dihydroisoquinolin-2(1H)-yl)pyrimidin-4-yl]piperidin-4-yl}-6-(3-fluorophenyl)nicotinamide]
0.593 nM | O=C(NC1CCN(c2cnccn2)CC1)c1ccc(-c2cccc(F)c2)nc1 [Example 60, 6-(3-Fluorophenyl)-N-(1-pyrazin-2-ylpiperidin-4-yl)nicotinamide]
3.33 nM | Cn1ccnc1-c1nc(N2CCC(NC(=O)c3ccc(-c4cccc(F)c4)nc3)CC2)nc2ccccc12 [Example 62, 6-(3-Fluorophenyl)-N-{1-[4-(1-methyl-1H-imidazol-2-yl)quinazolin-2-yl]piperidin-4-yl}nicotinamide]
0.183 nM | O=C(NC1CCN(c2ncnc3ncccc23)CC1)c1ccc(-c2cccc(F)c2)nc1 [Example 63, 6-(3-Fluorophenyl)-N-(1-pyrido[2,3-d]pyrimidin-4-ylpiperidin-4-yl)nicotinamide]
0.627 nM | CCOC(=O)c1cccnc1N1CCC(NC(=O)c2ccc(-c3cccc(F)c3)nc2)CC1 [Example 66, Ethyl 2-[4-({[6-(3-fluorophenyl)pyridin-3-yl]carbonyl}amino)piperidin-1-yl]nicotinate]
0.955 nM | COc1ccnc(N2CCC(NC(=O)c3ccc(-c4cccc(F)c4)nc3)CC2)c1C#N [Example 67, N-[1-(3-Cyano-4-methoxypyridin-2-yl)piperidin-4-yl]-6-(3-fluorophenyl)nicotinamide]
0.361 nM | NC(=O)c1ccc(N2CCC(NC(=O)c3ccc(-c4cccc(F)c4)nc3)CC2)nc1 [Example 68, N-{1-[5-(Aminocarbonyl)pyridin-2-yl]piperidin-4-yl}-6-(3-fluorophenyl)nicotinamide]
